From patent US20070048329A1, “Epstein barr virus peptide epitopes, polyepitopes and delivery system therefor” (priority 2002, published 2007) come the findings set out here.

One test has as its target HLA A2 (Homo sapiens, UniProt P04439, D140Y/D185E/D98H/E176V/E277Q/G131W/G231S/I119V/I121R/I166T/I218V/L300P/L318F/N151K/N90K/P208A/P217A/Q86G/Q94H/R138H/R169H/T345S). The experiment in a line: MHC stabilisation assay on T2 cells. It counts as cell-based. As to conditions: 14-16 h at 26° C. then 2-3 h at 37° C., FACS. On the set-up: endogenous in cells; host or cells: T2 (.174×CEM.T2), TAP-negative B×T hybrid cell line. Here is the method:
FIG. 7: A: CTL recognition of variant and prototypic BLA A2-restricted LMP1 epitope […]. PHA blasts were sensitized with serial dilutions of each of the peptides and then exposed to either the […]-specific CTL clone, SB7. B: MHC stabilization analysis on T2 cells using variant and prototypic HLA A2-restricted LMP1 epitope. T2 cells were initially incubated with 200 μl of each of the peptides (10 μg/ml) for 14-16 h at 26° C. followed by incubation at 37° C. for 2-3 h. HLA A2 expression on these cells was analysed by FACS using HLA A2-specific monoclonal antibody.
To assess MHC binding by the HLA A2-restricted LMP1 epitope variants from EBV isolates, T2 cells (2×10^5) were incubated with 200 μl of each of the peptides (100 μg/ml) at 26° C. for 14-16 h, followed by incubation at 37° C. for 2-3 h. After the incubations, HLA A2 expression was measured by FACS using a specific monoclonal antibody (HB82, ATCC).

Test [1] relates to peptide-sensitised PHA blasts and LCLs. The test is described as follows: 51Cr-release cytotoxicity assay with peptide-specific CTL lines and clones. The test is classed as cell-based, human. The settings on record: serial dilutions of peptide, compared with wild-type YLLEMLWRL, CTL clone SB7. The method, then: Polyclonal CTL lines and LMP1-specific CTL clones were established according to previously published methods (Moss 1988; Khanna 1998). Briefly, 2×10^6 PBMCs were stimulated with 1×10^6 autologous lymphocytes (responder to stimulator ratio of 2:1) pulsed with 10 μM peptide for 1 hr in 2 ml in a 24-well plate. After 3 days, culture medium with IL-2 (10 U/ml) was added and the cells were further expanded. These lymphocytes were restimulated on day 7 with γ-irradiated (8000 rad) autologous LCLs. After 10 days in culture medium, the cells were used as polyclonal effectors in a standard ^51Cr-release assay against peptide-sensitised autologous PHA blasts.
To generate peripheral blood CTL clones specific for the LMP1 derived peptides, PBMCs of healthy donors were reactivated (2×10^6) PBMCs with peptide-sensitised (10 ug of peptide/ml) autologous lymphocytes (1×10^6) in 2 ml wells of a 24-well plate in culture medium. After 3 days, the cells were seeded onto 0.35% agarose and maintained in T cell growth medium containing rIL2 (50 IU/ml). After another 3 days, growing clones were transferred to 96-well round-bottom tissue culture plates (Life Technologies) and cultured in T cell growth medium containing rIL2 (50-100 IU/ml).
Target cells were pre-sensitized with synthetic peptide epitopes and then incubated with ^51Cr for 90 min. Following incubation, these cells were washed in growth medium and used as targets in a standard 5 h ^51Cr-release assay (Moss, 1988)
To further characterize the minimal T cell epitopes defined by ELISPOT assays we generated polyclonal and clonal CTL lines specific for these epitopes. PBMCs from the healthy seropositive donors were stimulated with synthetic peptide epitopes and the CTL clones or polyclonal lines were established and tested in standard ^51Cr-release assays. The […] peptide-specific CTL clones were generated using initial stimulation with peptide-sensitized autologous PBMC followed by continuous restimulation with irradiated autologous LCL. These CTL clones were screened for […]-specific CTL activity by ^51Cr release assays against peptide-sensitised autologous and allogeneic PHA blast and LCLs. […] Titration of this minimal epitope on autologous PHA blasts further confirmed the fine specificity of this CTL clone (FIG. 5B).

A further test relates to CD8+ CTL. The experiment in a line: Immunization of HLA A2/K^b transgenic mice, epitope-specific T cell responses. The settings on record: mouse, in vivo. The source says:
HLA A2/K^b transgenic mice used in this study have been described elsewhere (Theobald 1997). These mice express a chimeric class I molecule composed of the alpha 1 & 2 domains of the human A*0201 allele and the alpha 3 domains of the mouse H-2K^b class I molecules. These mice were vaccinated intraperitoneally with 10^8 plaque forming units of recombinant Ad5-LMPpoly or a control adenovirus. After 3 weeks, splenocytes were harvested and tested for epitope-specific T cell responses. These T cell responses were assessed using ELISPOT and in vivo CTL assays as herein described.

“Also recorded” adds a separate entry of the source.

In the case of “YFLEILWRL [variant of […] dominant in South-East Asian EBV isolates]”, at HLA A2, the “HLA A2 expression on T2 cells (HLA A2 binding)” value was “unable to rescue HLA A2 expression; also recorded: significant loss in HLA A2 binding”. Moreover, the “sensitizing autologous PHA blast to lysis by YLLEMLWRL-specific CTL clone” value in test [1] is “poorly recognized”.

With YLLEILWRL, the “HLA A2 expression on T2 cells (HLA A2 binding)” value on HLA A2 is listed as “significantly increased MHC expression on T2 cells”. Further, the “sensitizing autologous PHA blast to lysis by YLLEMLWRL-specific CTL clone” value in test [1] was “recognized as efficiently as the wild-type epitope”.

B1: SEQ ID NO:81: polyepitope protein of thirteen contiguous LMP1 and LMP2 CTL epitopes (protein)
chain: MPYLFWLAAISSCSSCPLSKITYGPVFMCLRRRWRRLTVLLSAWILTALTAGFLIFLCLGGLLTMVVMSNTLLSAWIEDPPFNSLYLLEMLWRLYLQQNWWTLALLVLYSFALIALYLQQNW
Turning to B1, in the test on CD8+ CTL, the “CD8+ CTL responses in polyepitope-immunized mice” value is listed as “induce CD8+CTL responses”.
